# Laboratory results: US12122763B2, “Substituted piperidines for androgen receptor degradation” (UBIX THERAPEUTICS, INC., priority 2020, dated 2024)
# Biological target: T1, Androgen Receptor (AR) protein (Homo sapiens, UniProt P10275, T878A)
# T1 construct: endogenous in cells; host or cells: LNCaP
# Experiment: Androgen Receptor (AR) protein degradation assay in LNCaP cells, western blotting
# Assay type: cell-based
# Details: 20 h; for inhibition at 0.01 µM: 0.01 μM compound; for inhibition at 0.1 µM: 0.1 μM compound; for inhibition at 1 µM: 1 μM compound
# Outline: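 LNCaP prostate cancer cells were cultured 3 days, then treated with compound for 20 h. Lysates in 1% SDS buffer were normalised by BCA, and 8 μg protein was run on 4–12% Bis-Tris gels. AR was immunoblotted with chemiluminescence, using GAPDH/β-actin as loading controls.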
# T1 sequence (P10275 whole entry T878A): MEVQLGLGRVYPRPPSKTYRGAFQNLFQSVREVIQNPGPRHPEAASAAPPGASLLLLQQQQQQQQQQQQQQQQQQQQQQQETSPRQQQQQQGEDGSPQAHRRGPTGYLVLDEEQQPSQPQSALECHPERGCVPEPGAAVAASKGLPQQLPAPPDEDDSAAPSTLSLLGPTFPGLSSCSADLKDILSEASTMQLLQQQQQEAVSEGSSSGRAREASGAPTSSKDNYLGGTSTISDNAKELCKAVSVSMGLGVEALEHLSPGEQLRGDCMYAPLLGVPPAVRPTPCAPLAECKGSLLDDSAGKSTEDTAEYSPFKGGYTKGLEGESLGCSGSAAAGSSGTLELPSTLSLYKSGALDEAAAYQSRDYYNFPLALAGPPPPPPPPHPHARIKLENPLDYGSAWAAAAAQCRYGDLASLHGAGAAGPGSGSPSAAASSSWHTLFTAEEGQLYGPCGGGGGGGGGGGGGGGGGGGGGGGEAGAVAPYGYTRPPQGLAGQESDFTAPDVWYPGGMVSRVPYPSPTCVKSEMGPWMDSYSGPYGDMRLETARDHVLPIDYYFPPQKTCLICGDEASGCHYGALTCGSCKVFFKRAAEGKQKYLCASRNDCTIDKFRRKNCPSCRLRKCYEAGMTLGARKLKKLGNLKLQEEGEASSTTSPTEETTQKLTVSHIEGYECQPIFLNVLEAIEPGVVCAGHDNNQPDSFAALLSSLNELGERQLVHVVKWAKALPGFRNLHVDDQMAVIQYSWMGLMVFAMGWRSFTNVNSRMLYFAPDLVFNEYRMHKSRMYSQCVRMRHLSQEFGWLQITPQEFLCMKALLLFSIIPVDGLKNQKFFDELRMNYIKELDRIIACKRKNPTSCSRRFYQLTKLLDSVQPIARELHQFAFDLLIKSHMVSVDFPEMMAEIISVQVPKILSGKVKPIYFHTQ
# T1 sequence (Q96SW2 whole entry partner): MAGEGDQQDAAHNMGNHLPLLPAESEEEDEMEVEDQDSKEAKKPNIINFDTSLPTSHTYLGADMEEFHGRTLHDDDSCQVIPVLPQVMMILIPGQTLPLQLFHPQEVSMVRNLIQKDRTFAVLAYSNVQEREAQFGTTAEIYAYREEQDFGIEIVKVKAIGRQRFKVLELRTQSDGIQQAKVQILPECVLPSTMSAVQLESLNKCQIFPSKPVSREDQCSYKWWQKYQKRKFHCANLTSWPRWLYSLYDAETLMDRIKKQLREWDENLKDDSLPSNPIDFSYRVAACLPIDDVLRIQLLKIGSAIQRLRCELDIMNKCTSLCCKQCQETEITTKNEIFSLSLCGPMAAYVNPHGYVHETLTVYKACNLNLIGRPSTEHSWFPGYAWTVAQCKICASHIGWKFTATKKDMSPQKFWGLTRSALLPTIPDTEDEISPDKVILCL
SMILES,inhibition at 0.01 µM [%],inhibition at 0.1 µM [%],inhibition at 1 µM [%]
"N#Cc1ccc(N2CCC(C(=O)Nc3ccc(N4CCC(CN5CC(N6CCN(c7ccc8c(c7)C(=O)N(C7CCC(=O)NC7=O)C8=O)CC6)C5)CC4)cn3)CC2)cc1C(F)(F)F (stereo not drawn) [Example 77, 1-(4-cyano-3-(trifluoromethyl)phenyl)-N-(5-(4-((3-(4-(2-(2,6-dioxopiperidin-3-yl)-1,3-dioxoisoindolin-5-yl)piperazin-1-yl)azetidin-1-yl)methyl)piperidin-1-yl)pyridin-2-yl)piperidine-4-carboxamide]",46,96,97
"N#Cc1ccc(N2CCC(C(=O)Nc3ccc(N4CCC(CN5CCN(CC6CN(c7cc8c(cc7F)C(=O)N(C7CCC(=O)NC7=O)C8=O)C6)CC5)CC4)cn3)CC2)cc1C(F)(F)F (stereo not drawn) [Example 20, 1-(4-cyano-3-(trifluoromethyl)phenyl)-N-(5-(4-((4-((1-(2-(2,6-dioxopiperidin-3-yl)-6-fluoro-1,3-dioxoisoindolin-5-yl)azetidin-3-yl)methyl)piperazin-1-yl)methyl)piperidin-1-yl)pyridin-2-yl)piperidine-4-carboxamide]",67,97,97
"N#Cc1ccc(N2CCC(C(=O)Nc3ccc(N4CCC(CN5CCN(C6CCN(c7ccc8c(c7)CN(C7CCC(=O)NC7=O)C8=O)CC6)CC5)CC4)cn3)CC2)cc1C(F)(F)F (stereo not drawn) [Example 140, 1-(4-cyano-3-(trifluoromethyl)phenyl)-N-(5-(4-((4-(1-(2-(2,6-dioxopiperidin-3-yl)-1-oxoisoindolin-5-yl)piperidin-4-yl)piperazin-1-yl)methyl)piperidin-1-yl)pyridin-2-yl)piperidine-4-carboxamide]",87,98,95
"CN(CC1CCN(c2ccc(NC(=O)C3CCN(c4ccc(C#N)c(C(F)(F)F)c4)CC3)nc2)CC1)CC1CCN(c2ccc3c(c2)C(=O)N(C2CCC(=O)NC2=O)C3=O)CC1 (stereo not drawn) [Example 84, 1-(4-cyano-3-(trifluoromethyl)phenyl)-N-(5-(4-((((1-(2-(2,6-dioxopiperidin-3-yl)-1,3-dioxoisoindolin-5-yl)piperidin-4-yl)methyl)(methyl)amino)methyl)piperidin-1-yl)pyridin-2-yl)piperidine-4-carboxamide]",59,89,88
"N#Cc1ccc(N2CCC(C(=O)Nc3ccc(CN4CCC(CN5CCC(Oc6ccc7c(c6)C(=O)N(C6CCC(=O)NC6=O)C7=O)CC5)CC4)cn3)CC2)cc1C(F)(F)F (stereo not drawn) [Example 163, 1-(4-cyano-3-(trifluoromethyl)phenyl)-N-(5-((4-((4-((2-(2,6-dioxopiperidin-3-yl)-1,3-dioxoisoindolin-5-yl)oxy)piperidin-1-yl)methyl)piperidin-1-yl)methyl)pyridin-2-yl)piperidine-4-carboxamide]",-14,60,78
"N#Cc1ccc(N2CCC(C(=O)Nc3ccc(OCCN4CCN(CC(=O)Nc5cccc(NC6CCC(=O)NC6=O)c5)CC4)cn3)CC2)cc1C(F)(F)F (stereo not drawn) [Example 176, 1-(4-cyano-3-(trifluoromethyl)phenyl)-N-(5-(2-(4-(2-((3-((2,6-dioxopiperidin-3-yl)amino)phenyl)amino)-2-oxoethyl)piperazin-1-yl)ethoxy)pyridin-2-yl)piperidine-4-carboxamide]",-2,-22,16
"N#Cc1ccc(N2CCC(C(=O)Nc3ccc(N4CCC(CN5CCN(CC6CCN(c7cccc8c7C(=O)N(C7CCC(=O)NC7=O)C8=O)CC6)CC5)CC4)cn3)CC2)cc1C(F)(F)F (stereo not drawn) [Example 13, 1-(4-cyano-3-(trifluoromethyl)phenyl)-N-(5-(4-((4-((1-(2-(2,6-dioxopiperidin-3-yl)-1,3-dioxoisoindolin-4-yl)piperidin-4-yl)methyl)piperazin-1-yl)methyl)piperidin-1-yl)pyridin-2-yl)piperidine-4-carboxamide]",59,91,94
"N#Cc1ccc(N2CCC(C(=O)Nc3ccc(N4CCC(CCN5CC6CN(c7ccc8c(c7)C(=O)N(C7CCC(=O)NC7=O)C8=O)CC6C5)CC4)cn3)CC2)cc1C(F)(F)F (stereo not drawn) [Example 101, 1-(4-cyano-3-(trifluoromethyl)phenyl)-N-(5-(4-(2-(5-(2-(2,6-dioxopiperidin-3-yl)-1,3-dioxoisoindolin-5-yl)hexahydropyrrolo[3,4-c]pyrrol-2(1H)-yl)ethyl)piperidin-1-yl)pyridin-2-yl)piperidine-4-carboxamide]",63,95,95
"N#Cc1ccc(N2CCC(C(=O)Nc3ccc(N4CC5(CCN(CC6CCN(c7ccc8c(c7)C(=O)N(C7CCC(=O)NC7=O)C8=O)CC6)CC5)C4)cn3)CC2)cc1C(F)(F)F (stereo not drawn) [Example 121, 1-(4-cyano-3-(trifluoromethyl)phenyl)-N-(5-(7-((1-(2-(2,6-dioxopiperidin-3-yl)-1,3-dioxoisoindolin-5-yl)piperidin-4-yl)methyl)-2,7-diazaspiro[3.5]nonan-2-yl)pyridin-2-yl)piperidine-4-carboxamide]",81,98,98
"N#Cc1ccc(N2CCC(C(=O)Nc3ccc(N4CCC(CN5CC6CN(c7ccc8c(c7)C(=O)N(C7CCC(=O)NC7=O)C8=O)CC6C5)CC4)cn3)CC2)cc1C(F)(F)F (stereo not drawn) [Example 85, 1-(4-cyano-3-(trifluoromethyl)phenyl)-N-(5-(4-((5-(2-(2,6-dioxopiperidin-3-yl)-1,3-dioxoisoindolin-5-yl)hexahydropyrrolo[3,4-c]pyrrol-2(1H)-yl)methyl)piperidin-1-yl)pyridin-2-yl)piperidine-4-carboxamide]",24,89,92
"N#Cc1ccc(N2CCC(F)(C(=O)Nc3ccc(N4CCC(CN5CC6(CCN(c7ccc8c(c7)CN(C7CCC(=O)NC7=O)C8=O)CC6)C5)CC4)cn3)CC2)cc1C(F)(F)F (stereo not drawn) [Example 136, 1-(4-cyano-3-(trifluoromethyl)phenyl)-N-(5-(4-((7-(2-(2,6-dioxopiperidin-3-yl)-1-oxoisoindolin-5-yl)-2,7-diazaspiro[3.5]nonan-2-yl)methyl)piperidin-1-yl)pyridin-2-yl)-4-fluoropiperidine-4-carboxamide]",38,92,91
"N#Cc1ccc(N2CCC(C(=O)Nc3ccc(N4CCC(CCN5CCN(c6ccc7c(c6)CN(C6CCC(=O)NC6=O)C7=O)CC5)CC4)cn3)CC2)cc1C(F)(F)F (stereo not drawn) [Example 139, 1-(4-cyano-3-(trifluoromethyl)phenyl)-N-(5-(4-(2-(4-(2-(2,6-dioxopiperidin-3-yl)-1-oxoisoindolin-5-yl)piperazin-1-yl)ethyl)piperidin-1-yl)pyridin-2-yl)piperidine-4-carboxamide]",30,92,84
